Holding throughout (type): cell-based
In data set [1] the test system is Bacillus subtilis (DSM 347). As to conditions: DSM 347, 20 h. Here is the method:
(§1) The antimicrobial activity of the KL peptides was determined with a MIC assay. Peptide activity was tested against Gram-negative Escherichia coli (DSM 1116) and Enterobacter helveticus (DSM 18390) and against Gram-positive Bacillus subtilis (DSM 347) and Staphylococcus xylosus (DSM 20287) as previously reported. Our standard MIC assay was modified to avoid unnecessary exposure of peptides to the phosphate-containing growth medium, which was previously found to affect the results due to phosphate-induced aggregation of peptides. Details can be found in the Supplementary Materials.
(§2) The activity of KL and LK peptides against bacteria was examined using a MIC assay. […] We have previously shown that KL peptides, especially the longer ones, aggregate vigorously in the presence of phosphate ions. […] Therefore, here we used a modified MIC assay that was developed in our previous study, as described in the Methods section. In this approach, a two-fold dilution series was first prepared with peptides dissolved in water, and only thereafter were the bacteria in the medium added so that the peptides were simultaneously exposed to bacteria and phosphate-containing medium.
(§3) 1.3 MIC (minimum inhibitory concentration) assay
(§4) Antimicrobial activity was measured by a minimal inhibitory concentration (MIC) assay, carried out with Gram-positive Bacillus subtilis (DSM 347) and Staphylococcus xylosus (DSM 20287) and with Gram-negative Escherichia coli (DSM 1116) and Enterobacter helvet-icus (DSM 18390). Bacteria were grown in Müller-Hinton medium at 37°C overnight. Bac-terial solutions with OD550 = 0.2 was further diluted 1:100 for Gram-positive and 1:1000 for Gram-negative bacteria to get a concentration of […] colony forming units (CFU)/mL. Mi-crotiter plates (96 wells of 100 μL) were filled peptide solution to obtain serial 2-fold dilu-tion series of peptides. 50 µL of pure water was first added to each well. To the first well 50 µL peptide solution was added, after mixing 50 µL of this was transferred to the second well and so on. After all plates were prepared, 50 µL bacterial solution in double-concen-tration MHM was added to the wells (except for the final row of each plate) to give a final concentration of 5 × 10^5 CFU/mL in the wells. Thus, peptides got in contact with phosphate and bacteria simultaneously. […]
(§5) gregate stronlgy in contact with the phosphate containing growth medium. The two final rows of each plate remained without peptide, so that the penultimate data point served as the positive co ntrol (no peptide), and the final one as the negative control (not inoculated). The plates were incubated at 37°C for 20 h, and cell viability was probed by addition of 20 µL 0.2 mg/mL resazurin and incubation at 37°C for 2 h. The MIC value was determined visually as the lowest peptide concentration inhibiting bacterial growth. […]
(§6) Unencapsulated dye was removed by gel filtration using spin columns filled with Sephacryl 100-HR (Sigma-Aldrich, Taufkirchen, Germany), and equilibrated with an elu-tion buffer (150 mM NaCl, 10 mM HEPES, pH 7.5), which balances the internal vesicle

Data set [2] relates to Escherichia coli (DSM 1116). As to conditions: DSM 1116, 20 h. Here is the method: as §1, §2, §3, §4, §5, §6
Data set [3] has as its system Staphylococcus xylosus (DSM 20287). As to conditions: DSM 20287, 20 h. Here is the method:
as §1, §2, §3, §4, §5, §6

Data set [4] relates to Enterobacter helveticus (DSM 18390). As to conditions: DSM 18390, 20 h. Here is the method: as §1, §2, §3, §4, §5, §6
The test system of a further data set is erythrocytes. Kind of data set: Hemolysis assay. The settings on record: for Hemolysis HC50 (concentration of peptide giving 50% hemolysis) / Hemolysis: 20 h.

Like-named read-outs stand apart in the source and are kept apart here. No end group written: not given here.

KLKLKL-NH2 [KL6]: the “MIC B. subtilis” value in data set [1] was more than 256 µg/mL. Besides, the “MIC E. coli” value in data set [2] is listed as more than 256 µg/mL. Also, in data set [3], the “MIC S. xylosus” value worked out at 256 µg/mL. For the same substance, in data set [4], the “MIC E. helveticus” value is 128 µg/mL. Besides, in the data set with erythrocytes, the “Hemolytic activity (in words)” value was “very low hemolytic activity” and the “Hemolysis HC50 (concentration of peptide giving 50% hemolysis)” value is on record as more than 256 µg/mL.
On to KLKLKLKL-NH2 [KL8], for which the “MIC B. subtilis” value in data set [1] amounted to 16 µg/mL. Moreover, in data set [2], the “MIC E. coli” value was found to be 64 µg/mL. The “MIC S. xylosus” value in data set [3] is 8 µg/mL. Moreover, the “MIC E. helveticus” value in data set [4] was determined as 16 µg/mL. Also, in the data set on erythrocytes, the “Hemolytic activity (in words)” value is on record as “very low hemolytic activity” and the “Hemolysis HC50 (concentration of peptide giving 50% hemolysis)” value is more than 256 µg/mL.
KLKLKLKLK-NH2 [KL9]: the “MIC B. subtilis” value in data set [1] was 16 µg/mL. In addition, the “MIC E. coli” value in data set [2] is 32 µg/mL. Further, in data set [3], the “MIC S. xylosus” value worked out at 2 µg/mL. The “MIC E. helveticus” value in data set [4] came out at 8 µg/mL. Further, the “Hemolysis HC50 (concentration of peptide giving 50% hemolysis)” value in the data set on erythrocytes is listed as more than 256 µg/mL. Also, the Hemolysis in the data set on erythrocytes (1 µg/mL) is 5%; with erythrocytes (2 µg/mL), 6%; with erythrocytes (4 µg/mL), 8%; in the data set on erythrocytes (8 µg/mL) it was 9%; with erythrocytes (16 µg/mL) it was 9%; in the data set on erythrocytes (32 µg/mL), 11%. Also, the Hemolysis is listed as 14% in the data set with erythrocytes (64 µg/mL), 18% with erythrocytes (128 µg/mL) and 20% in the data set with erythrocytes (256 µg/mL). The “Hemolytic activity (in words)” value in the data set with erythrocytes (erythrocytes, 37°C 30 min) is recorded as “very low hemolytic activity”.
KLKLKLKLKLK-NH2 [KL11]: the “MIC B. subtilis” value in data set [1] was determined as 4 µg/mL. Moreover, the “MIC E. coli” value in data set [2] is recorded as 4 µg/mL. Further, the “MIC S. xylosus” value in data set [3] is on record as 1 µg/mL. In addition, the “MIC E. helveticus” value in data set [4] came out at 2 µg/mL. Further, in the data set on erythrocytes, the “Hemolytic activity (in words)” value is “very low hemolytic activity” and the “Hemolysis HC50 (concentration of peptide giving 50% hemolysis)” value was more than 256 µg/mL.
As to KLKLKLKLKLKL-NH2 [KL12], the “MIC B. subtilis” value in data set [1] was 2 µg/mL. Besides, the “MIC E. coli” value in data set [2] is given as 2 µg/mL. Besides, the “MIC S. xylosus” value in data set [3] is 2 µg/mL. Moreover, the “MIC E. helveticus” value in data set [4] amounted to 2 µg/mL. Further, the “Hemolysis HC50 (concentration of peptide giving 50% hemolysis)” value in the data set on erythrocytes was found to be 8 µg/mL.
For the substance KLKLKLKLKLKLK-NH2 [KL13], in data set [1], the “MIC B. subtilis” value worked out at 2 µg/mL. Further, in data set [2], the “MIC E. coli” value was found to be 2 µg/mL. For the same substance, the “MIC S. xylosus” value in data set [3] was determined as 1 µg/mL. For the same substance, the “MIC E. helveticus” value in data set [4] is recorded as 1 µg/mL. The “Hemolysis HC50 (concentration of peptide giving 50% hemolysis)” value in the data set on erythrocytes is reported as 9 µg/mL.
Turning to KLKLKLKLKLKLKLK-NH2 [KL15], the “MIC B. subtilis” value in data set [1] was found to be 4 µg/mL. Moreover, the “MIC E. coli” value in data set [2] is given as 8 µg/mL. For the same substance, the “MIC S. xylosus” value in data set [3] was 2 µg/mL. Also, the “MIC E. helveticus” value in data set [4] came to 2 µg/mL. In the data set on erythrocytes, the “Hemolysis HC50 (concentration of peptide giving 50% hemolysis)” value is recorded as 2 µg/mL.
Consider KLKLKLKLKLKLKLKL-NH2 [KL16], for which, in data set [1], the “MIC B. subtilis” value was found to be 16 µg/mL. In addition, the “MIC E. coli” value in data set [2] was 32 µg/mL. In data set [3], the “MIC S. xylosus” value amounted to 8 µg/mL. Also, in data set [4], the “MIC E. helveticus” value stood at 8 µg/mL. Moreover, the “Hemolysis HC50 (concentration of peptide giving 50% hemolysis)” value in the data set with erythrocytes amounted to 2 µg/mL.
As for KLKLKLKLKLKLKLKLKLKL-NH2 [KL20], the “MIC B. subtilis” value in data set [1] amounted to 32 µg/mL. The “MIC E. coli” value in data set [2] is recorded as 32 µg/mL. Besides, the “MIC S. xylosus” value in data set [3] is 16 µg/mL. For the same substance, the “MIC E. helveticus” value in data set [4] worked out at 32 µg/mL. Also, the “Hemolysis HC50 (concentration of peptide giving 50% hemolysis)” value with erythrocytes is less than 1 µg/mL.
Regarding KLKLKLKLKLKLKLKLKLKLKL-NH2 [KL22], in data set [1], the “MIC B. subtilis” value is 32 µg/mL. Besides, the “MIC E. coli” value in data set [2] was found to be 32 µg/mL. Moreover, in data set [3], the “MIC S. xylosus” value came out at 16 µg/mL. For the same substance, in data set [4], the “MIC E. helveticus” value amounted to 32 µg/mL. In the data set on erythrocytes, the “Hemolysis HC50 (concentration of peptide giving 50% hemolysis)” value is recorded as less than 1 µg/mL.
As for KLKLKLKLKLKLKLKLKLKLKLKL-NH2 [KL24], in data set [1], the “MIC B. subtilis” value was determined as 32 µg/mL. Moreover, the “MIC E. coli” value in data set [2] was determined as 32 µg/mL. In data set [3], the “MIC S. xylosus” value is 8 µg/mL. For the same substance, in data set [4], the “MIC E. helveticus” value came to 16 µg/mL. For the same substance, the “Hemolysis HC50 (concentration of peptide giving 50% hemolysis)” value in the data set on erythrocytes is on record as less than 1 µg/mL.

The record behind these values is paper PMC9495826, “Membranolytic Mechanism of Amphiphilic Antimicrobial β-Stranded [KL]n Peptides” (Biomedicines, 2022).
